# What was measured:
# [1] = system: MITF ubiquitination mediated by PIAS3 and METTL10; assay: In vitro ubiquitination assay with purified Flag-MITF; assay type: biochemical; conditions: 20 µM
# Description: For the in vitro Sumoylation assay, bacteria‐purified GST‐PIAS3 and HEK293T‐purified MITF were incubated with SAE1, UBC9 in reaction buffer according to the manufacturer's instructions at 37 °C for 2 h. For the in vitro ubiquitination assay, purified His‐METTL10, GST‐PIAS3, Flag‐MITF, SAE1, and UBC9 proteins were incubated with ubiquitin, UBE1, UBE2B, and RNF4 in reaction buffer according to the manufacturer's instructions at 37 °C for 2 h. All the samples were subjected to immunoprecipitation and subsequently boiled in SDS‐PAGE loading buffer for immunoblotting.
# [2] = system: Flag-METTL10 protein in HEK293T cells; assay: Cycloheximide chase assay of Flag-METTL10 stability; assay type: cell-based; conditions: 20 µM
# [3] = system: METTL10 protein levels in MKN45 and AGS cells; assay: Immunoblotting of METTL10 protein levels in treated GC cells; assay type: cell-based; conditions: 20 µM, not rescued by MG132
# Description: Protein extraction from tissues or cells was performed by lysis buffer (20 mM Tris‐HCl (pH 7.5), 150 mM NaCl, 1 mM EDTA, 1 mM EGTA, 2.5 mM sodium pyrophosphate, 1 mM β‐glycerolphosphate, 1% Triton X‐100) supplemented with 1% phenylmethylsulfonyl fluoride (PMSF; Solarbio, P0100) and protease inhibitor cocktail (Apexbio, K1007) and lysed at 4 °C for 60 min, followed by centrifugation at 12000 g for 15 min at 4 °C. For Immunoblotting, the protein concentration was determined using the Pierce BCA Protein Assay Kit (Thermo Fisher Scientific, A55864). The protein samples were denatured by boiling in SDS‐PAGE loading buffer. For immunoprecipitation, antibodies were incubated with Dynabeads Protein G (Thermo, 10004D) at 4 °C for 4 h. The supernatant was then incubated with magnetic beads conjugated with antibodies or anti‐FLAG‐M2 magnetic beads (Sigma–Aldrich, M8823) at 4 °C overnight. Following incubation, the magnetic beads were washed three times with lysis buffer and then boiled in SDS‐PAGE loading buffer. The proteins were separated by sodium dodecyl sulfate polyacrylamide gel electrophoresis (SDS‐PAGE) with One‐Step PAGE Gel Fast Preparation Kit (Vazyme), and then transferred to the PVDF Membrane (Bio‐Rad). After blocking with a protein‐free rapid blocking buffer (Epizyme, PS108P) for 15 min, the membranes were incubated with primary antibodies at 4 °C overnight. […]
# [4] = Acute toxicity, single intraperitoneal injection at escalating doses (LD50); conditions: ICR, mouse, in vivo, ip, ICR mice, 24 h survival
# Description: For the acute toxic study, 8‐week‐old ICR mice (n = 6 per group) were administered a single intraperitoneal injection of LZQ‐02‐023‐01 at escalating doses. A vehicle‐treated group served as control. Survival was monitored continuously for 24 h postadministration. Additionally, another cohort of ICR mice (n = 5 per group) received a single intraperitoneal dose of LZQ‐02‐023‐01 at 125 mg/kg and were subsequently monitored daily for 7 days for clinical signs of toxicity, behavioral changes, body weight fluctuations, and mortality. At the conclusion of the observation period, animals were euthanized and subjected to a comprehensive gross necropsy. Major organs, including the liver, kidney, heart, lung, and spleen, were harvested for histopathological examination. For the chronic toxic study, 8‐week‐old ICR mice (n = 5 per group) received daily intraperitoneal injections of LZQ‐02‐023‐01 at a therapeutic dose of 40 mg/kg for 14 consecutive days. A vehicle‐treated group was included as a control. Throughout the treatment period, animals were monitored daily for clinical signs of toxicity and weighed every 2 days. At study termination, blood samples were collected for hematological and biochemical analyses. […]
# [5] = system: purine nucleotides in MKN45 and AGS cells; assay: Purine metabolite levels by LC-MS; assay type: cell-based; conditions: 20 µM
# Description: Cells were collected and transferred to centrifuge tubes, followed by three washes with cold PBS. The samples were then resuspended in an extraction solution (methanol: acetonitrile: water = 2:2:1, v/v/v, 1 mL) and vortexed for 30 s. The suspension underwent ice bath sonication for 10 min and frozen and thawed in liquid nitrogen for repeated three times. To fully precipitate proteins, the samples were incubated at −20 °C for 1 h. Subsequently, the cell lysates were centrifuged at 13000 rpm for 15 min at 4 °C. The supernatant was then lyophilized using a low‐temperature vacuum centrifugal concentrator and analyzed by LC‐MS using the AB SCIEX QTRAP 6500^+ system.
# METTL10 = system: T1, METTL10; assay: MTase-Glo screening assay, METTL10 with Histone H4 peptide substrate; assay type: biochemical; conditions: 10 µM
# T1 construct: purchased ICE Bioscience Inc
# Description: To identify METTL10 inhibitors, an in‐silico screening was first conducted on an in‐house compound library comprising approximately 6000 structurally diverse molecules. Molecular docking simulations with the METTL10 protein identified 111 candidate compounds for further analysis. The methyltransferase activity of these candidates was assessed using the MTase‐Glo Methyltransferase Assay (Promega, V7601) according to the manufacturer's protocol. Briefly, the candidate compounds were preincubated with His‐METTL10 protein (1 µg) at 37 °C for 1 h in a methylation reaction buffer (50 mM Tris‐HCl (pH 8.0), 20 mM KCl, 5 mM DTT, 4 mM EDTA, and 20 µM SAM), followed by the addition of either the Histone H4 or PIAS3 peptide substrate for an additional 1 h. The reaction was then subjected to MTase‐Glo reagent buffer for 30 min, followed by MTase‐Glo detection buffer for another 30 min. Luminescence was measured using a luminometer (Promega), and IC50 values were calculated using GraphPad Prism 8 software.
smiles,measurement,setting,value
"Cc1ccc(Nc2ncc3c(n2)N(C)C(=O)N(c2cccc(N)c2)C3)cn1 [LZQ-02-023-01, Three‐(3‐aminophenyl)‐1‐methyl‐7‐((6‐methylpyridin‐3‐yl)amino)‐3,4‐dihydropyrimido [4,5‐d] pyrimidin‐2 (1H)‐one]","PIAS3-mediated ubiquitination and degradation of MITF, cell-free system",[1],significantly promoted
same,Half-life of METTL10 protein,[2],remained unchanged
same,METTL10 protein levels,[3],significant reduction
same,LD50 at 24 h,[4],213 mg/kg
same,Levels of purine nucleotides,[5],decreased
same,Inhibition of METTL10 activity toward histone H4,METTL10,significantly inhibited
